Data on eleven molecules can be found in US20180000085A1, “USE OF PICOLINAMIDE COMPOUNDS WITH FUNGICIDAL ACTIVITY” (DOW AGROSCIENCES LLC, priority 2014, published 2018).

Assay [1] relates to Zymoseptoria tritici. Description: Leaf blotch of wheat (SEPTTR) disease control on wheat seedlings. More on the design: key to SEPTTR 1DP, HV activity at 100 ppm (% control rating) / SEPTTR 3DC, HV activity at 100 ppm (% control rating) / SEPTTR disease control, 1DP / SEPTTR disease control, 3DC / SEPTTR 1DP disease control rating, HV activity / SEPTTR 3DC disease control rating, HV activity / SEPTTR 3DC, LV activity at 125.1 g/H (% Control rating) / SEPTTR 1DP, LV activity at 125.1 g/H (% Control rating) / SEPTTR 1DP disease control rating, LV activity at 125.1 g/H / SEPTTR 3DC disease control rating, LV activity at 125.1 g/H / SEPTTR 3DC disease control rating, HV activity at 100 ppm / SEPTTR 1DP disease control rating, HV activity at 100 ppm / HV activity at 100 ppm SEPTTR 3DC (disease control rating) / HV activity at 100 ppm SEPTTR 1DP (disease control rating) / LV activity at 125.1 g/H SEPTTR 1DP (disease control rating) / LV activity at 125.1 g/H SEPTTR 3DC (disease control rating): A: > 80; B: ≤ 80; C: Not Tested; D: No Activity Observed in the Reported Assay. Type of assay: in vivo. The following applies: for SEPTTR 1DP disease control rating, HV activity / SEPTTR 3DC disease control rating, HV activity: HV application at 100 ppm; for SEPTTR 1DP disease control rating, LV activity at 125.1 g/H: 1 day protectant; for SEPTTR 3DC disease control rating, LV activity at 125.1 g/H: 3 day curative; for HV activity at 100 ppm SEPTTR 1DP (disease control rating) / HV activity at 100 ppm SEPTTR 3DC (disease control rating): HV application.

Assay [2] has as its system Puccinia triticina. Nature of the assay: Wheat brown rust (PUCCRT) disease control on wheat seedlings. Type of assay: in vivo. More on the design: key to PUCCRT 3DC, HV activity at 100 ppm (% control rating) / PUCCRT disease control, 3DC / PUCCRT 1DP disease control rating, HV activity / PUCCRT 3DC disease control rating, HV activity / PUCCRT 3DC, LV activity at 125.1 g/H (% Control rating) / PUCCRT 1DP, LV activity at 125.1 g/H (% Control rating) / PUCCRT 3DC disease control rating, LV activity at 125.1 g/H / PUCCRT 1DP disease control rating, LV activity at 125.1 g/H / PUCCRT 3DC disease control rating, HV activity at 100 ppm / PUCCRT 1DP disease control rating, HV activity at 100 ppm / HV activity at 100 ppm PUCCRT 3DC (disease control rating) / LV activity at 125.1 g/H PUCCRT 1DP (disease control rating) / LV activity at 125.1 g/H PUCCRT 3DC (disease control rating): A: > 80; B: ≤ 80; C: Not Tested; D: No Activity Observed in the Reported Assay. The following applies: for PUCCRT 1DP disease control rating, HV activity / PUCCRT 3DC disease control rating, HV activity: HV application at 100 ppm; for PUCCRT 1DP disease control rating, LV activity at 125.1 g/H: 1 day protectant; for PUCCRT 3DC disease control rating, LV activity at 125.1 g/H: 3 day curative; for HV activity at 100 ppm PUCCRT 1DP (disease control rating) / HV activity at 100 ppm PUCCRT 3DC (disease control rating): HV application.

The mark [3] stands for this setting: low volume application, 125.1 g/H, 1 Day Protectant.
[4] abbreviates: low volume application, 125.1 g/H, 3 Day Curative.
Setting [5] is: 1 Day Protectant, wheat leaf blotch.
The mark [6] stands for this setting: 3 Day Curative, wheat leaf blotch.
The mark [7] stands for this setting: 1 Day Protectant, wheat brown rust.
The mark [8] stands for this setting: 3 Day Curative, wheat brown rust.
Where [9] appears, read: low volume application, 125.1 g/H.

Take `COc1ccnc(C(=O)NC(C)C(=O)OC(C)COCC(C)C)c1OCOC(C)=O` (centres unmarked) [Cmpd 533]: the “SEPTTR 1DP, LV activity at 125.1 g/H (% Control rating)” value (“SEPTTR 1DP … (% Control rating)” for short) in assay [1] (setting [3]) is on record as “D”. Also, the “SEPTTR 3DC, LV activity at 125.1 g/H (% Control rating)” value (“SEPTTR 3DC … (% Control rating)” below) in assay [1] (setting [4]) was “A (> 80)”. Moreover, in assay [2] (setting [3]), the “PUCCRT 1DP, LV activity at 125.1 g/H (% Control rating)” value (shortened to “PUCCRT 1DP … (% Control rating)”) was “D”. Moreover, in assay [2] (setting [4]), the “PUCCRT 3DC, LV activity at 125.1 g/H (% Control rating)” value (“PUCCRT 3DC … (% Control rating)” for short) is listed as “A (> 80)”.
For `C=CC(OC(=O)C(C)NC(=O)c1nccc(OC)c1OCOC(C)=O)C(Oc1ccccc1)C(C)C` (centres unmarked) [Cmpd 1092], the “LV activity at 125.1 g/H SEPTTR 1DP (disease control rating)” value in assay [1] (low volume application, 125.1 g/H, 1 Day Protectant, wheat leaf blotch) is reported as “D”. Besides, the “LV activity at 125.1 g/H SEPTTR 3DC (disease control rating)” value in assay [1] (low volume application, 125.1 g/H, 3 Day Curative, wheat leaf blotch) is listed as “D”. Moreover, the “LV activity at 125.1 g/H PUCCRT 1DP (disease control rating)” value in assay [2] (low volume application, 125.1 g/H, 1 Day Protectant, wheat brown rust) was “B (≤ 80)”. Moreover, the “LV activity at 125.1 g/H PUCCRT 3DC (disease control rating)” value in assay [2] (low volume application, 125.1 g/H, 3 Day Curative, wheat brown rust) is recorded as “B (≤ 80)”.
Consider `CCCC(NC(=O)c1nccc(OC)c1OCOC(C)=O)C(=O)OC(C)C(CCc1ccccc1)OCC(C)C` (centres unmarked) [Cmpd 444], for which the “SEPTTR 1DP disease control rating, HV activity” value in assay [1] (setting [5]) is “A (> 80)”. The “SEPTTR 3DC disease control rating, HV activity” value in assay [1] (setting [6]) was “A (> 80)”. Besides, the “PUCCRT 1DP disease control rating, HV activity” value in assay [2] (setting [7]) was “A (> 80)”. The “PUCCRT 3DC disease control rating, HV activity” value in assay [2] (setting [8]) is “B (≤ 80)”.
Consider `COc1ccnc(C(=O)NC(C)C(=O)OC(C)(C)C(Oc2ccccc2)C(C)C)c1OCOC(C)=O` (mixture of isomers) [Cmpd 903], for which, in assay [1] (setting [9]), the “SEPTTR 1DP disease control rating, LV activity at 125.1 g/H” value is “B (≤ 80)” and the “SEPTTR 3DC disease control rating, LV activity at 125.1 g/H” value is reported as “A (> 80)”. Also, in assay [2] (setting [9]), the “PUCCRT 1DP disease control rating, LV activity at 125.1 g/H” value is on record as “B (≤ 80)” and the “PUCCRT 3DC disease control rating, LV activity at 125.1 g/H” value was “D”.
`COc1ccnc(C(=O)N[C@@H](C)C(=O)O[C@@H](C)[C@@H](CC(C)C)Oc2cccc(F)c2)c1O` [Cmpd 1048]: the “HV activity at 100 ppm SEPTTR 1DP (disease control rating)” value in assay [1] (setting [5]) is on record as “B (≤ 80)”. Moreover, the “HV activity at 100 ppm SEPTTR 3DC (disease control rating)” value in assay [1] (setting [6]) is “A (> 80)”. The “HV activity at 100 ppm PUCCRT 1DP (disease control rating)” value in assay [2] (setting [7]) is given as “A (> 80)”. In addition, in assay [2] (setting [8]), the “HV activity at 100 ppm PUCCRT 3DC (disease control rating)” value is recorded as “A (> 80)”.
For the molecule `CCC(CC)[C@@H](Oc1cccc(-c2ccccc2)c1)[C@H](C)OC(=O)[C@H](C)NC(=O)c1nccc(OC)c1OC(C)=O` [Cmpd 606], in assay [1] (setting [3]), the “SEPTTR 1DP … (% Control rating)” value is on record as “A (> 80)”. Moreover, the “SEPTTR 3DC … (% Control rating)” value in assay [1] (setting [4]) is “B (≤ 80)”. Moreover, the “PUCCRT 1DP … (% Control rating)” value in assay [2] (setting [3]) was “A (> 80)”. The “PUCCRT 3DC … (% Control rating)” value in assay [2] (setting [4]) is “B (≤ 80)”.
Consider `CCOc1ccnc(C(=O)N[C@@H](C)C(=O)O[C@@H](C)[C@@H](CC(C)C)Oc2cccc(F)c2)c1O` [Cmpd 1039], for which the “HV activity at 100 ppm SEPTTR 1DP (disease control rating)” value in assay [1] (setting [5]) was “D”. The “HV activity at 100 ppm SEPTTR 3DC (disease control rating)” value in assay [1] (setting [6]) is “B (≤ 80)”. In addition, the “HV activity at 100 ppm PUCCRT 1DP (disease control rating)” value in assay [2] (setting [7]) is on record as “A (> 80)”. In addition, in assay [2] (setting [8]), the “HV activity at 100 ppm PUCCRT 3DC (disease control rating)” value is listed as “A (> 80)”.
On to `COc1ccnc(C(=O)N[C@@H](C)C(=O)O[C@@H](C)[C@H](Oc2ccc(Cl)cc2Cl)C(C)C)c1OCOC(C)=O` [Cmpd 562], for which the “SEPTTR 1DP … (% Control rating)” value in assay [1] (setting [3]) is on record as “D”. Further, the “SEPTTR 3DC … (% Control rating)” value in assay [1] (setting [4]) was “A (> 80)”. Besides, the “PUCCRT 1DP … (% Control rating)” value in assay [2] (setting [3]) is recorded as “A (> 80)”. Further, in assay [2] (setting [4]), the “PUCCRT 3DC … (% Control rating)” value is listed as “A (> 80)”.
Take `COc1ccnc(C(=O)NC(C)C(=O)OC(C)C(Oc2cccc(Cl)c2)C(C)C)c1OC(C)=O` (centres unmarked) [Cmpd 857]: in assay [1] (setting [9]), the “SEPTTR 1DP disease control rating, LV activity at 125.1 g/H” value is given as “B (≤ 80)” and the “SEPTTR 3DC disease control rating, LV activity at 125.1 g/H” value is “B (≤ 80)”. In addition, in assay [2] (setting [9]), the “PUCCRT 1DP disease control rating, LV activity at 125.1 g/H” value is listed as “A (> 80)” and the “PUCCRT 3DC disease control rating, LV activity at 125.1 g/H” value was “A (> 80)”.
Regarding `COc1ccnc(C(=O)N[C@@H](C)C(=O)O[C@H](C)[C@@H](Oc2ccccc2)c2ccccc2)c1O` [Cmpd 350], in assay [1] (setting [5]), the “SEPTTR 1DP disease control rating, HV activity” value was “D”. In addition, the “SEPTTR 3DC disease control rating, HV activity” value in assay [1] (setting [6]) is reported as “B (≤ 80)”. For the same molecule, in assay [2] (setting [7]), the “PUCCRT 1DP disease control rating, HV activity” value is recorded as “D”. The “PUCCRT 3DC disease control rating, HV activity” value in assay [2] (setting [8]) is given as “A (> 80)”.
Take `COc1ccnc(C(=O)N[C@@H](C)C(=O)O[C@H](C)[C@@H](Oc2ccccc2)C(C)C)c1O` [Cmpd 349]: the “SEPTTR 1DP disease control rating, HV activity” value in assay [1] (setting [5]) is on record as “D”. In assay [1] (setting [6]), the “SEPTTR 3DC disease control rating, HV activity” value is recorded as “B (≤ 80)”. For the same molecule, the “PUCCRT 1DP disease control rating, HV activity” value in assay [2] (setting [7]) is “D”. Besides, the “PUCCRT 3DC disease control rating, HV activity” value in assay [2] (setting [8]) was “D”.
